Values after ≈ are worked out from the molar mass of the structure shown. “Also recorded” adds a separate entry of the source. Read-outs that look alike come from different tables or passages of the source. Blank lines part the entries; values can stand above or below the compound they belong to.
Experiments:
T. rubrum = test: Broth dilution antifungal susceptibility testing, T. rubrum; type: cell-based, Trichophyton rubrum; settings: Trichophyton rubrum, 80% inhibition, read-out: minimum inhibitory concentration (MIC)
Procedure: (§1) A total of 23 isolates were tested to include 3 Candida albicans, 3 Candida glabrata, 3 Cryptococcus neoformans, 3 Aspergillus fumigatus, 3 Rhizopus oryzae, 3, Fusarium solani, 3 Pseudallescheria boydii, and 2 […]. All isolates were clinical isolates submitted to the Fungus Testing Laboratory for evaluation. Antifungal susceptibility testing was accomplished according to the methods outlined in the National Committee for Clinical Laboratory Standards, M-27A2, Reference Method for Broth Dilution Antifungal Susceptibility Testing of Yeasts; Approved Standard, and M38-A “Reference Method for Broth Dilution Antifungal Susceptibility Testing of Conidium-Forming Filamentous Fungi; Approved Standard”. This includes testing in RPMI-1640 with glutamine and without bicarbonate, an inoculum size of 0.5-2.5×10^3 for yeasts or […] for moulds, and incubation at 35° C. for 24 and 48 hours. […] Drug concentrations were 0.125-64 μg/ml. A 10 mg portion of each powder was weighed out and added to 1 ml of 100% DMSO for compound 205. The resulting concentration of […] was diluted to a working concentration of 6400 μg/ml for compound 205 in 100% DMSO. All subsequent dilutions were also made using the respective diluents. Final testing concentrations ranged from 0.125-64 μg/ml. The NCCLS recommended medium RPMI-1640 (Hardy Diagnostics, Santa Monica, Calif.) was utilized as the test medium. All isolates in this study were clinical isolates received in the Fungus Testing Laboratory for standard antifungal susceptibility testing and/or identification. Isolates, which were not sent for identification, were confirmed to assure testing integrity. A total of 23 were tested to include 3 Candida albicans, 3 Candida glabrata, 3 Cryptococcus neoformans, 3 Aspergillus fumigatus, 3 Rhizopus oryzae, 3, Fusarium solani, 3 Pseudallescheria boydii, and 2 […]. Minimum inhibitory concentrations (MIC) were determined at the first 24-hour interval where growth could be determined in the drug-free control tube.

R. arrhizus = test: Broth dilution antifungal susceptibility testing, R. arrhizus; type: cell-based, Rhizopus oryzae; settings: Rhizopus arrhizus, 80% inhibition, read-out: minimum inhibitory concentration (MIC)
Procedure: as §1

C. neoformans = test: Broth dilution antifungal susceptibility testing, C. neoformans; type: cell-based; settings: Cryptococcus neoformans, 50% reduction in turbidity, read-out: minimum inhibitory concentration (MIC)
Procedure: as §1

cell line U-87 = test: Activity against the cell line U-87; type: cell-based, human; settings: potency on an equimolar basis
F. solani = test: Broth dilution antifungal susceptibility testing, F. solani; type: cell-based; settings: Fusarium solani, 80% inhibition, read-out: minimum inhibitory concentration (MIC)
Procedure: as §1

A. fumigatus = test: Broth dilution antifungal susceptibility testing, A. fumigatus; type: cell-based, Aspergillus fumigatus; settings: Aspergillus fumigatus, 80% inhibition, read-out: minimum inhibitory concentration (MIC)
Procedure: as §1

S. apiospermum = test: Broth dilution antifungal susceptibility testing, S. apiospermum; type: cell-based, Pseudallescheria boydii; settings: Scedosporium apiospermum, 80% inhibition, read-out: minimum inhibitory concentration (MIC)
Procedure: as §1

GBM xenograft = GBM xenograft tumor volume in SCID mice; type: in vivo; settings: for inhibition of GBM xenograft tumor volume: tumor cells implanted subcutaneously, 0, 7, 14, 21 and 28 days
C. glabrata = test: Broth dilution antifungal susceptibility testing, C. glabrata; type: cell-based, Candida glabrata; settings: Nakaseomyces glabratus, 50% reduction in turbidity, read-out: minimum inhibitory concentration (MIC)
Procedure: as §1

CP Control = test: Broth dilution antifungal susceptibility testing, CP Control; type: cell-based; settings: read-out: minimum inhibitory concentration (MIC)
Procedure: as §1

U87 GBM xenografts = test: Inhibition of U87 GBM xenografts; settings: in vivo
C. albicans = test: Broth dilution antifungal susceptibility testing, C. albicans; type: cell-based, Candida albicans; settings: Candida albicans, 50% reduction in turbidity, read-out: minimum inhibitory concentration (MIC)
Procedure: as §1

[1] = 24 h, isolate 07-1743, 24 hours
[2] = 24 h, isolate 07-2055, 24 hours
[3] = 48 h, isolate 07-1743, 48 hours
[4] = 48 h, isolate 07-2055, 48 hours
[5] = 24 h, isolate 07-1870, 24 hours
[6] = 24 h, isolate 07-2044, 24 hours
[7] = 24 h, isolate 07-2078, 24 hours
[8] = 48 h, isolate 07-1870, 48 hours
[9] = 48 h, isolate 07-2044, 48 hours
[10] = 48 h, isolate 07-2078, 48 hours
[11] = 24 h, isolate 07-2665, 24 hours
[12] = 24 h, isolate 07-2737, 24 hours
[13] = 24 h, isolate 07-2829, 24 hours
[14] = 48 h, isolate 07-2665, 48 hours
[15] = 48 h, isolate 07-2737, 48 hours
[16] = 48 h, isolate 07-2829, 48 hours
[17] = 24 h, isolate 07-1399, 24 hours
[18] = 24 h, isolate 07-1755, 24 hours
[19] = 24 h, isolate 07-1867, 24 hours
[20] = 48 h, isolate 07-1399, 48 hours
[21] = 48 h, isolate 07-1755, 48 hours
[22] = 48 h, isolate 07-1867, 48 hours
[23] = 24 h, isolate 06-4126, 24 hours
[24] = 24 h, isolate 07-2039, 24 hours
[25] = 48 h, isolate 06-4126, 48 hours
[26] = 48 h, isolate 07-2039, 48 hours
[27] = 24 h, isolate 07-1333, 24 hours
[28] = 24 h, isolate 07-1502, 24 hours
[29] = 24 h, isolate 07-1601, 24 hours
[30] = 48 h, isolate 07-1333, 48 hours
[31] = 48 h, isolate 07-1502, 48 hours
[32] = 48 h, isolate 07-1601, 48 hours
[33] = 24 h, isolate 07-2964, 24 hours
[34] = 24 h, isolate 07-2965, 24 hours
[35] = 24 h, isolate 07-3013, 24 hours
[36] = 48 h, isolate 07-2964, 48 hours
[37] = 48 h, isolate 07-2965, 48 hours
[38] = 48 h, isolate 07-3013, 48 hours
[39] = 24 h, isolate 07-3006, 24 hours
[40] = 24 h, isolate 07-3011, 24 hours
[41] = 24 h, isolate 07-3012, 24 hours
[42] = 48 h, isolate 07-3006, 48 hours
[43] = 48 h, isolate 07-3011, 48 hours
[44] = 48 h, isolate 07-3012, 48 hours

MIC (T. rubrum; [1]): 16 µg/mL (≈ 46.6 µM)
MIC (T. rubrum; [2]): 8 µg/mL (≈ 23.3 µM)
MIC (T. rubrum; [3]): 32 µg/mL (≈ 93.2 µM)
MIC (T. rubrum; [4]): 16 µg/mL (≈ 46.6 µM)
MIC (R. arrhizus; [5]): > 64 µg/mL
MIC (R. arrhizus; [6]): 64 µg/mL (≈ 186 µM)
MIC (R. arrhizus; [7]): 64 µg/mL (≈ 186 µM)
MIC (R. arrhizus; [8]): > 64 µg/mL
MIC (R. arrhizus; [9]): 64 µg/mL (≈ 186 µM)
MIC (R. arrhizus; [10]): > 64 µg/mL
MIC (C. neoformans; [11]): 32 µg/mL (≈ 93.2 µM)
MIC (C. neoformans; [12]): 32 µg/mL (≈ 93.2 µM)
MIC (C. neoformans; [13]): 32 µg/mL (≈ 93.2 µM)
MIC (C. neoformans; [14]): 32 µg/mL (≈ 93.2 µM)
MIC (C. neoformans; [15]): 32 µg/mL (≈ 93.2 µM)
MIC (C. neoformans; [16]): 32 µg/mL (≈ 93.2 µM)
MIC (F. solani; [17]): 64 µg/mL (≈ 186 µM)
MIC (F. solani; [18]): > 64 µg/mL
MIC (F. solani; [19]): 32 µg/mL (≈ 93.2 µM)
MIC (F. solani; [20]): > 64 µg/mL
MIC (F. solani; [21]): > 64 µg/mL
MIC (F. solani; [22]): 64 µg/mL (≈ 186 µM)
MIC (A. fumigatus; 24 h, isolate 05-388, 24 hours): 16 µg/mL (≈ 46.6 µM)
MIC (A. fumigatus; [23]): 16 µg/mL (≈ 46.6 µM)
MIC (A. fumigatus; [24]): 8 µg/mL (≈ 23.3 µM)
MIC (A. fumigatus; 48 h, isolate 05-388, 48 hours): > 64 µg/mL
MIC (A. fumigatus; [25]): > 64 µg/mL
MIC (A. fumigatus; [26]): > 64 µg/mL
MIC (S. apiospermum; [27]): 8 µg/mL (≈ 23.3 µM)
MIC (S. apiospermum; [28]): 32 µg/mL (≈ 93.2 µM)
MIC (S. apiospermum; [29]): 2 µg/mL (≈ 5.82 µM)
MIC (S. apiospermum; [30]): 16 µg/mL (≈ 46.6 µM)
MIC (S. apiospermum; [31]): 64 µg/mL (≈ 186 µM)
MIC (S. apiospermum; [32]): 4 µg/mL (≈ 11.6 µM)
MIC (C. glabrata; [33]): 32 µg/mL (≈ 93.2 µM)
MIC (C. glabrata; [34]): 32 µg/mL (≈ 93.2 µM)
MIC (C. glabrata; [35]): 32 µg/mL (≈ 93.2 µM)
MIC (C. glabrata; [36]): 64 µg/mL (≈ 186 µM)
MIC (C. glabrata; [37]): 64 µg/mL (≈ 186 µM)
MIC (C. glabrata; [38]): 64 µg/mL (≈ 186 µM)
MIC (CP Control; 24 hours): 32 µg/mL (≈ 93.2 µM)
MIC (CP Control; 48 hours): 32 µg/mL (≈ 93.2 µM)
MIC (C. albicans; [39]): 32 µg/mL (≈ 93.2 µM)
MIC (C. albicans; [40]): 32 µg/mL (≈ 93.2 µM)
MIC (C. albicans; [41]): 32 µg/mL (≈ 93.2 µM)
MIC (C. albicans; [42]): 64 µg/mL (≈ 186 µM)
MIC (C. albicans; [43]): > 64 µg/mL
MIC (C. albicans; [44]): 64 µg/mL (≈ 186 µM)
Compound: O=C(CCCCCNC(=O)c1ccccc1S)Nc1cccnc1 [Compound 205, 2-Mercapto-N-[5-(pyridin-3-ylcarbamoyl)pentyl]benzamide]
activity against the cell line U-87 (cell line U-87): most potent on an equimolar basis
activity relative to an equimolar dose of SAHA (GBM xenograft; GBM xenograft, subcutaneous): more active than, an equimolar dose of SAHA
inhibition of GBM xenograft tumor volume (GBM xenograft): inhibited the growth of GBM xenograft tumor volume; also recorded: active
inhibition of U87 GBM xenografts compared to control (U87 GBM xenografts): significant inhibition

MIC (T. rubrum; [1]): 0.25 µg/mL (≈ 0.648 µM)
MIC (T. rubrum; [2]): 0.25 µg/mL (≈ 0.648 µM)
MIC (T. rubrum; [3]): 0.25 µg/mL (≈ 0.648 µM)
MIC (T. rubrum; [4]): 0.25 µg/mL (≈ 0.648 µM)
MIC (R. arrhizus; [5]): 32 µg/mL (≈ 83 µM)
MIC (R. arrhizus; [6]): 32 µg/mL (≈ 83 µM)
MIC (R. arrhizus; [7]): > 64 µg/mL
MIC (R. arrhizus; [8]): 64 µg/mL (≈ 166 µM)
MIC (R. arrhizus; [9]): 64 µg/mL (≈ 166 µM)
MIC (R. arrhizus; [10]): > 64 µg/mL
MIC (C. neoformans; [11]): 16 µg/mL (≈ 41.5 µM)
MIC (C. neoformans; [12]): 16 µg/mL (≈ 41.5 µM)
MIC (C. neoformans; [13]): 64 µg/mL (≈ 166 µM)
MIC (C. neoformans; [14]): 32 µg/mL (≈ 83 µM)
MIC (C. neoformans; [15]): 32 µg/mL (≈ 83 µM)
MIC (C. neoformans; [16]): 64 µg/mL (≈ 166 µM)
MIC (F. solani; [17]): > 64 µg/mL
MIC (F. solani; [18]): > 64 µg/mL
MIC (F. solani; [19]): 64 µg/mL (≈ 166 µM)
MIC (F. solani; [20]): > 64 µg/mL
MIC (F. solani; [21]): > 64 µg/mL
MIC (F. solani; [22]): > 64 µg/mL
MIC (A. fumigatus; 24 h, isolate 05-388, 24 hours): 16 µg/mL (≈ 41.5 µM)
MIC (A. fumigatus; [23]): 8 µg/mL (≈ 20.8 µM)
MIC (A. fumigatus; [24]): 8 µg/mL (≈ 20.8 µM)
MIC (A. fumigatus; 48 h, isolate 05-388, 48 hours): > 64 µg/mL
MIC (A. fumigatus; [25]): 64 µg/mL (≈ 166 µM)
MIC (A. fumigatus; [26]): > 64 µg/mL
MIC (S. apiospermum; [27]): 1 µg/mL (≈ 2.59 µM)
MIC (S. apiospermum; [28]): 8 µg/mL (≈ 20.8 µM)
MIC (S. apiospermum; [29]): 2 µg/mL (≈ 5.19 µM)
MIC (S. apiospermum; [30]): 2 µg/mL (≈ 5.19 µM)
MIC (S. apiospermum; [31]): 16 µg/mL (≈ 41.5 µM)
MIC (S. apiospermum; [32]): 2 µg/mL (≈ 5.19 µM)
MIC (C. glabrata; [33]): 32 µg/mL (≈ 83 µM)
MIC (C. glabrata; [34]): 32 µg/mL (≈ 83 µM)
MIC (C. glabrata; [35]): 32 µg/mL (≈ 83 µM)
MIC (C. glabrata; [36]): > 64 µg/mL
MIC (C. glabrata; [37]): > 64 µg/mL
MIC (C. glabrata; [38]): > 64 µg/mL
MIC (CP Control; 24 hours): 8 µg/mL (≈ 20.8 µM)
MIC (CP Control; 48 hours): 64 µg/mL (≈ 166 µM)
MIC (C. albicans; [39]): 64 µg/mL (≈ 166 µM)
MIC (C. albicans; [40]): 64 µg/mL (≈ 166 µM)
MIC (C. albicans; [41]): > 64 µg/mL
MIC (C. albicans; [42]): > 64 µg/mL
MIC (C. albicans; [43]): > 64 µg/mL
MIC (C. albicans; [44]): > 64 µg/mL
Compound: CN(C)c1ccc(NC(=O)CCCCCNC(=O)c2ccccc2S)cc1 [Compound 206, 2-Mercapto-N-[5-(4-dimethylamino-3-yl-carbamoyl)pentyl]benzamide]
activity against the cell line U-87 (cell line U-87): most potent on an equimolar basis
inhibition of GBM xenograft tumor volume (GBM xenograft): inhibited the growth of GBM xenograft tumor volume
inhibition of U87 GBM xenografts compared to control (U87 GBM xenografts): significant inhibition
